Converted amounts (≈) assume the structure as drawn.

Holding throughout (assay type): functional
Test [1] has as its system Staphylococcus aureus. The test is described as follows: Antibacterial activity against Staphylococcus aureus 1199B assessed as reduction in bacterial growth incubated for 20 hrs by microplate reader method.
Test [2] concerns Staphylococcus aureus. As to the kind of experiment: Antibacterial activity against Staphylococcus aureus NCTC 13616 assessed as reduction in bacterial growth incubated for 20 hrs by microplate reader method.
The subject of test [3] is Staphylococcus aureus. The test is described as follows: Antibacterial activity against Staphylococcus aureus USA 300 assessed as reduction in bacterial growth incubated for 20 hrs by microplate reader method.
Test [4] has as its system Staphylococcus aureus. As to the kind of experiment: Antibacterial activity against Staphylococcus aureus ATCC 9144 assessed as reduction in bacterial growth incubated for 20 hrs by microplate reader method.
Test [5] deals with Enterococcus faecalis. The test is described as follows: Antibacterial activity against Vanomycin-resistant Enterococcus faecalis NCTC 12201 assessed as reduction in bacterial growth incubated for 20 hrs by microplate reader method.
Test [6] relates to Enterococcus faecalis. The test is described as follows: Antibacterial activity against Vanomycin-sensitive Enterococcus faecalis NCTC 775 assessed as reduction in bacterial growth incubated for 20 hrs by microplate reader method.
A further test deals with Enterococcus faecium. As to the kind of experiment: Antibacterial activity against Vanomycin-resistant Enterococcus faecium NCTC 12204 assessed as reduction in bacterial growth incubated for 20 hrs by microplate reader method.

Regarding `Cc1ccc(CC(=O)NC[C@H]2CN(c3ccc(N4CCOCC4)c(F)c3)C(=O)O2)cc1`, the MIC in the test with Staphylococcus aureus [1] amounted to 64 µg/mL (≈ 150 µM); in the test with Staphylococcus aureus [2], 64 µg/mL (≈ 150 µM); with Staphylococcus aureus [3], 128 µg/mL (≈ 299 µM); in the test with Staphylococcus aureus [4], 128 µg/mL (≈ 299 µM); in the test on Enterococcus faecalis [5], 16 µg/mL (≈ 37.4 µM); with Enterococcus faecalis [6] it was 64 µg/mL (≈ 150 µM). Further, the MIC with Enterococcus faecium was determined as 16 µg/mL (≈ 37.4 µM).
In the case of `O=C(NC[C@H]1CN(c2ccc(N3CCOCC3)c(F)c2)C(=O)O1)C1CCC1`, the MIC was 8 µg/mL (≈ 21.2 µM) in the test on Staphylococcus aureus [1]; 8 µg/mL (≈ 21.2 µM) with Staphylococcus aureus [2]; 16 µg/mL (≈ 42.4 µM) in the test on Staphylococcus aureus [3]; 16 µg/mL (≈ 42.4 µM) in the test with Staphylococcus aureus [4]; 8 µg/mL (≈ 21.2 µM) in the test on Enterococcus faecalis [5]; 16 µg/mL (≈ 42.4 µM) in the test on Enterococcus faecalis [6]. In addition, the MIC with Enterococcus faecium was found to be 8 µg/mL (≈ 21.2 µM).
Turning to `NCC(=O)NC[C@H]1CN(c2ccc(N3CCOCC3)c(F)c2)C(=O)O1`, the MIC in the test on Staphylococcus aureus [1] was above 128 µg/mL; with Staphylococcus aureus [2], above 128 µg/mL; in the test on Staphylococcus aureus [3] it was above 128 µg/mL; with Staphylococcus aureus [4], above 128 µg/mL; in the test with Enterococcus faecalis [5] it was 64 µg/mL (≈ 182 µM); in the test with Enterococcus faecalis [6] it was 64 µg/mL (≈ 182 µM). Moreover, the MIC in the test on Enterococcus faecium amounted to 32 µg/mL (≈ 90.8 µM).
Turning to `O=C(NC[C@H]1CN(c2ccc(N3CCOCC3)c(F)c2)C(=O)O1)c1ccsc1`, the minimal inhibitory concentration (MIC) stood at 8 µg/mL (≈ 19.7 µM) in the test on Staphylococcus aureus [1]; 16 µg/mL (≈ 39.5 µM) in the test with Staphylococcus aureus [2]; 16 µg/mL (≈ 39.5 µM) with Staphylococcus aureus [3]; 16 µg/mL (≈ 39.5 µM) with Staphylococcus aureus [4]; 8 µg/mL (≈ 19.7 µM) in the test on Enterococcus faecalis [5]; 16 µg/mL (≈ 39.5 µM) with Enterococcus faecalis [6]. Besides, the MIC with Enterococcus faecium came to 8 µg/mL (≈ 19.7 µM).
Turning to `CCC(=O)NC[C@H]1CN(c2ccc(N3CCOCC3)c(F)c2)C(=O)O1`, the MIC in the test with Staphylococcus aureus [1] was determined as 4 µg/mL (≈ 11.4 µM); with Staphylococcus aureus [2], 4 µg/mL (≈ 11.4 µM); with Staphylococcus aureus [3], 8 µg/mL (≈ 22.8 µM); in the test with Staphylococcus aureus [4] it was 8 µg/mL (≈ 22.8 µM); in the test on Enterococcus faecalis [5], 4 µg/mL (≈ 11.4 µM); with Enterococcus faecalis [6], 4 µg/mL (≈ 11.4 µM). In addition, the MIC with Enterococcus faecium stood at 4 µg/mL (≈ 11.4 µM).
`CC(C)C(=O)NC[C@H]1CN(c2ccc(N3CCOCC3)c(F)c2)C(=O)O1`: the MIC in the test on Staphylococcus aureus [1] turned out to be 8 µg/mL (≈ 21.9 µM); with Staphylococcus aureus [2] it was 16 µg/mL (≈ 43.8 µM); in the test on Staphylococcus aureus [3], 16 µg/mL (≈ 43.8 µM); in the test on Staphylococcus aureus [4], 16 µg/mL (≈ 43.8 µM); in the test with Enterococcus faecalis [5], 8 µg/mL (≈ 21.9 µM); with Enterococcus faecalis [6], 16 µg/mL (≈ 43.8 µM). In the test on Enterococcus faecium, the MIC amounted to 8 µg/mL (≈ 21.9 µM).
Consider `O=C(NC[C@H]1CN(c2ccc(N3CCOCC3)c(F)c2)C(=O)O1)C1CC1`, for which the MIC with Staphylococcus aureus [1], with Staphylococcus aureus [2], in the test with Staphylococcus aureus [3], in the test on Staphylococcus aureus [4], in the test with Enterococcus faecalis [5] and in the test on Enterococcus faecalis [6] was 8 µg/mL (≈ 22 µM) throughout. Moreover, in the test on Enterococcus faecium, the MIC worked out at 8 µg/mL (≈ 22 µM).
Turning to `O=C(NC[C@H]1CN(c2ccc(N3CCOCC3)c(F)c2)C(=O)O1)c1cc2ccccc2[nH]1`, the MIC in the test on Staphylococcus aureus [1], in the test with Staphylococcus aureus [2], in the test on Staphylococcus aureus [3], with Staphylococcus aureus [4], in the test with Enterococcus faecalis [5] and in the test with Enterococcus faecalis [6] was above 128 µg/mL throughout. The MIC in the test on Enterococcus faecium is above 128 µg/mL.
`O=C(Cc1nnn[nH]1)NC[C@H]1CN(c2ccc(N3CCNCC3)c(F)c2)C(=O)O1`: the MIC with Staphylococcus aureus [1], in the test with Staphylococcus aureus [2], in the test with Staphylococcus aureus [3], in the test on Staphylococcus aureus [4], with Enterococcus faecalis [5] and with Enterococcus faecalis [6] was above 128 µg/mL throughout. Besides, the MIC in the test on Enterococcus faecium is above 128 µg/mL.
As for `O=C(NC[C@H]1CN(c2ccc(N3CCOCC3)c(F)c2)C(=O)O1)C1CC=CC1`, the MIC with Staphylococcus aureus [1] came out at 8 µg/mL (≈ 20.5 µM); in the test on Staphylococcus aureus [2], 16 µg/mL (≈ 41.1 µM); with Staphylococcus aureus [3] it was 16 µg/mL (≈ 41.1 µM); in the test on Staphylococcus aureus [4] it was 16 µg/mL (≈ 41.1 µM); in the test on Enterococcus faecalis [5] it was 8 µg/mL (≈ 20.5 µM); in the test with Enterococcus faecalis [6], 16 µg/mL (≈ 41.1 µM). For the same compound, the MIC in the test on Enterococcus faecium was 16 µg/mL (≈ 41.1 µM).
Consider `O=C(NC[C@H]1CN(c2ccc(N3CCOCC3)c(F)c2)C(=O)O1)c1ccccc1`, for which the MIC in the test with Staphylococcus aureus [1] worked out at 16 µg/mL (≈ 40.1 µM); with Staphylococcus aureus [2] it was 32 µg/mL (≈ 80.1 µM); in the test on Staphylococcus aureus [3], 32 µg/mL (≈ 80.1 µM); in the test on Staphylococcus aureus [4], 64 µg/mL (≈ 160 µM); with Enterococcus faecalis [5] it was 16 µg/mL (≈ 40.1 µM); in the test with Enterococcus faecalis [6] it was 32 µg/mL (≈ 80.1 µM). The MIC in the test with Enterococcus faecium is 16 µg/mL (≈ 40.1 µM).
On to `CC(=O)NC[C@H]1CN(c2ccc(N3CCOCC3)c(F)c2)C(=O)O1` [LINEZOLID], for which the MIC in the test on Enterococcus faecium turned out to be 2 µg/mL (≈ 5.93 µM).
With `O=C(NC[C@H]1CN(c2ccc(N3CCOCC3)c(F)c2)C(=O)O1)c1cc[nH]c1`, the MIC with Staphylococcus aureus [1] was found to be 64 µg/mL (≈ 165 µM); in the test with Staphylococcus aureus [2], 64 µg/mL (≈ 165 µM); in the test with Staphylococcus aureus [3], 32 µg/mL (≈ 82.4 µM); in the test with Staphylococcus aureus [4], 32 µg/mL (≈ 82.4 µM); in the test with Enterococcus faecalis [5], 32 µg/mL (≈ 82.4 µM); with Enterococcus faecalis [6], 32 µg/mL (≈ 82.4 µM). Also, the MIC in the test with Enterococcus faecium was found to be 16 µg/mL (≈ 41.2 µM).
On to `CCCC(=O)NC[C@H]1CN(c2ccc(N3CCOCC3)c(F)c2)C(=O)O1`, for which the MIC was 8 µg/mL (≈ 21.9 µM) with Staphylococcus aureus [1]; 8 µg/mL (≈ 21.9 µM) in the test on Staphylococcus aureus [2]; 16 µg/mL (≈ 43.8 µM) in the test with Staphylococcus aureus [3]; 8 µg/mL (≈ 21.9 µM) in the test with Staphylococcus aureus [4]; 8 µg/mL (≈ 21.9 µM) with Enterococcus faecalis [5]; 8 µg/mL (≈ 21.9 µM) in the test on Enterococcus faecalis [6]. Also, the MIC in the test on Enterococcus faecium is 8 µg/mL (≈ 21.9 µM).
Consider `O=C(Cc1cccc2ccccc12)NC[C@H]1CN(c2ccc(N3CCOCC3)c(F)c2)C(=O)O1`, for which the MIC is above 128 µg/mL in the test on Staphylococcus aureus [1]; above 128 µg/mL in the test with Staphylococcus aureus [2]; above 128 µg/mL with Staphylococcus aureus [3]; above 128 µg/mL in the test with Staphylococcus aureus [4]; 32 µg/mL (≈ 69 µM) with Enterococcus faecalis [5]; above 128 µg/mL in the test on Enterococcus faecalis [6]. Moreover, in the test with Enterococcus faecium, the MIC was determined as 64 µg/mL (≈ 138 µM).
Turning to `CN1CCC(C(=O)NC[C@H]2CN(c3ccc(N4CCOCC4)c(F)c3)C(=O)O2)C1` (stereo partly drawn), the MIC in the test on Staphylococcus aureus [1], in the test on Staphylococcus aureus [2], in the test on Staphylococcus aureus [3], in the test with Staphylococcus aureus [4], in the test with Enterococcus faecalis [5] and in the test on Enterococcus faecalis [6] was above 128 µg/mL throughout. In the test with Enterococcus faecium, the MIC is above 128 µg/mL.
Turning to `NCCC(=O)NC[C@H]1CN(c2ccc(N3CCOCC3)c(F)c2)C(=O)O1`, the MIC in the test on Staphylococcus aureus [1] is above 128 µg/mL; with Staphylococcus aureus [2] it was above 128 µg/mL; in the test on Staphylococcus aureus [3], above 128 µg/mL; with Staphylococcus aureus [4], above 128 µg/mL; in the test on Enterococcus faecalis [5] it was 128 µg/mL (≈ 349 µM); in the test with Enterococcus faecalis [6], above 128 µg/mL. In addition, the MIC in the test with Enterococcus faecium is 16 µg/mL (≈ 43.7 µM).
On to `O=C(NC[C@H]1CN(c2ccc(N3CCOCC3)c(F)c2)C(=O)O1)c1cc2ncccc2o1`, for which the MIC with Staphylococcus aureus [1] came out at 16 µg/mL (≈ 36.3 µM); in the test on Staphylococcus aureus [2], 16 µg/mL (≈ 36.3 µM); with Staphylococcus aureus [3] it was 16 µg/mL (≈ 36.3 µM); in the test on Staphylococcus aureus [4], 16 µg/mL (≈ 36.3 µM); in the test with Enterococcus faecalis [5], 8 µg/mL (≈ 18.2 µM); with Enterococcus faecalis [6], 16 µg/mL (≈ 36.3 µM). The MIC in the test on Enterococcus faecium was found to be 16 µg/mL (≈ 36.3 µM).
Consider `NCCCC(=O)NC[C@H]1CN(c2ccc(N3CCOCC3)c(F)c2)C(=O)O1`, for which the MIC in the test with Staphylococcus aureus [1], in the test on Staphylococcus aureus [2], in the test with Staphylococcus aureus [3], with Staphylococcus aureus [4], in the test with Enterococcus faecalis [5] and in the test with Enterococcus faecalis [6] was above 128 µg/mL each time. Moreover, in the test with Enterococcus faecium, the MIC worked out at 64 µg/mL (≈ 168 µM).
Regarding `O=C(NC[C@H]1CN(c2ccc(N3CCOCC3)c(F)c2)C(=O)O1)c1cnccn1`, the MIC turned out to be 32 µg/mL (≈ 79.7 µM) in the test with Staphylococcus aureus [1]; 64 µg/mL (≈ 159 µM) with Staphylococcus aureus [2]; 64 µg/mL (≈ 159 µM) with Staphylococcus aureus [3]; 64 µg/mL (≈ 159 µM) with Staphylococcus aureus [4]; 64 µg/mL (≈ 159 µM) with Enterococcus faecalis [5]; 64 µg/mL (≈ 159 µM) in the test with Enterococcus faecalis [6]. Also, the MIC in the test on Enterococcus faecium worked out at 64 µg/mL (≈ 159 µM).
Turning to `Cn1cc([N+](=O)[O-])nc1C(=O)NC[C@H]1CN(c2ccc(N3CCOCC3)c(F)c2)C(=O)O1`, the MIC with Staphylococcus aureus [1], with Staphylococcus aureus [2], in the test on Staphylococcus aureus [3], with Staphylococcus aureus [4], in the test with Enterococcus faecalis [5] and in the test with Enterococcus faecalis [6] was above 128 µg/mL throughout. Besides, the MIC in the test on Enterococcus faecium is above 128 µg/mL.
As for `O=C(NC[C@H]1CN(c2ccc(N3CCOCC3)c(F)c2)C(=O)O1)C1CCCS1` (stereo partly drawn), the MIC in the test with Staphylococcus aureus [1] was 32 µg/mL (≈ 78.1 µM); in the test on Staphylococcus aureus [2] it was 32 µg/mL (≈ 78.1 µM); in the test with Staphylococcus aureus [3], 32 µg/mL (≈ 78.1 µM); in the test with Staphylococcus aureus [4], 64 µg/mL (≈ 156 µM); in the test on Enterococcus faecalis [5] it was 32 µg/mL (≈ 78.1 µM); in the test on Enterococcus faecalis [6], 32 µg/mL (≈ 78.1 µM). Further, the MIC with Enterococcus faecium turned out to be 32 µg/mL (≈ 78.1 µM).

(Values after ChEMBL document CHEMBL5055653, “Synthesis, microbiological evaluation and structure activity relationship analysis of linezolid analogues with different C5-acylamino substituents” (2021).)
